In patent publication US20120171126A1, “NOVEL [3,2-c] HETEROARYL STEROIDS AS GLUCOCORTICOID RECEPTOR AGONISTS COMPOSITIONS AND USES THEREOF” (priority 2009, published 2012):
Where two headings read alike, the source gives them in different places.

Test system: IL-8
Test: Glucocorticoid transrepression assay, IL-8 inhibition (TR)
Assay type: cell-based
Conditions: Homo sapiens, NCl-H292 cells, TNFα 10 ng/ml; for Emax: read-out: IL-8 inhibition (TR) Emax % inhibition
Method: Human Lung epithelial cell line NCl-H292 cells were dissociated from stock flask using 0.05% trypsin/0.53 mM EDTA. Cells were suspended in complete medium and counted. Cells were plated in 96-well flat-bottom plates at 20K cells /well in 0.2 ml/well. Plates were incubated for 24-48 hours until cells were between 75-90% confluent. Medium was aspirated and replaced with medium containing various concentrations of steroids or antagonists. After 1 hour incubation at 37°, TNFα (10 ng/ml final concentration in 0.2 ml) was added and the cells incubated overnight. Control wells with and without TNF were included on each plate, as well as wells with TNF in addition to a maximum (10 μM) concentration of dexamethasone. The cell culture medium was sampled and IL-6 and IL-8 cytokine production was measured using the MSD Multi-Spot immunoassay.

Row | SMILES | IC50 (Table 1) [nM] | Emax (Table 1) [%] | IC50 (Table 2) [nM] | Emax (Table 2) [%] | Emax (Table 3) [%]
1 | CC12Cc3cnn(-c4ccc(F)cc4)c3C=C1CCC1C2[C@@H](O)CC2(C)C1CC[C@]2(O)C(=O)CSc1cnc2ccccc2n1 (some centres unmarked) [Compound 6] | 0.06 to 20 | > 80 |  |  | 
2 | C[C@@H](NC(=O)[C@@]1(O)CCC2C3CCC4=Cc5c(cnn5-c5ccc(F)cc5)C[C@]4(C)C3[C@@H](O)C[C@@]21C)c1ccccc1 (some centres unmarked) [Compound 6] |  |  | 0.06 to 20 | > 80 | 
3 | C[C@]12Cc3cnoc3C=C1CCC1C2[C@@H](O)C[C@@]2(C)C1CC[C@]2(O)C(=O)CSc1nc2ccccc2s1 (some centres unmarked) [Compound 6] |  |  |  |  | < 60
4 | CC12Cc3cnn(-c4ccc(F)cc4)c3C=C1CCC1C2[C@@H](O)CC2(C)C1CC[C@]2(O)C(=O)CSc1ncccn1 (some centres unmarked) [Compound 7] | 0.06 to 20 | > 80 |  |  | 
5 | C[C@@H](NC(=O)[C@@]1(O)CCC2C3CCC4=Cc5c(cnn5-c5ccc(F)cc5)C[C@]4(C)C3[C@@H](O)C[C@@]21C)c1cccc2ccccc12 (some centres unmarked) [Compound 7] |  |  | 0.06 to 20 | > 80 | 
6 | C[C@]12Cc3cnn(-c4ccc(F)cc4)c3C=C1CCC1C2[C@@H](O)C[C@@]2(C)C1CC[C@]2(O)C(=O)NC1(c2ncc(F)cc2F)CC1 (some centres unmarked) [Compound 8] |  |  | 0.06 to 20 | > 80 | 
7 | CC12Cc3cnn(-c4ccc(F)cc4)c3C=C1CCC1C2[C@@H](O)CC2(C)C1CC[C@]2(O)C(=O)CC#N (some centres unmarked) [Compound 9] | 0.06 to 20 | > 80 |  |  | 
8 | C[C@@H](NC(=O)[C@@]1(O)CCC2C3CCC4=Cc5c(cnn5-c5ccc(F)cc5)C[C@]4(C)C3[C@@H](O)C[C@@]21C)c1ccccn1 (some centres unmarked) [Compound 9] |  |  | 0.06 to 20 | > 80 | 
9 | CC12Cc3cnn(-c4ccc(F)cc4)c3C=C1CCC1C2[C@@H](O)CC2(C)C1CC[C@]2(O)C(=O)CSc1nc2cccnc2s1 (some centres unmarked) [Compound 10] | 0.06 to 20 | > 80 |  |  | 
10 | C[C@]12Cc3cnn(-c4ccc(F)cc4)c3C=C1CCC1C2[C@@H](O)C[C@@]2(C)C1CC[C@]2(O)C(=O)NCc1ccc2nccn2c1 (some centres unmarked) [Compound 10] |  |  | 0.06 to 20 | > 80 | 
11 | CC12Cc3cnn(-c4ccc(F)cc4)c3C=C1CCC1C2[C@@H](O)CC2(C)C1CC[C@]2(O)C(=O)CSc1nccc2ccccc12 (some centres unmarked) [Compound 11] | 0.06 to 20 | > 80 |  |  | 
12 | C[C@]12Cc3cnn(-c4ccc(F)cc4)c3C=C1CCC1C2[C@@H](O)C[C@@]2(C)C1CC[C@]2(O)C(=O)NCCc1cnccn1 (some centres unmarked) [Compound 11] |  |  | 0.06 to 20 | > 80 | 
13 | C[C@]12Cc3cnn(-c4ccc(F)cc4)c3C=C1CCC1C2[C@@H](O)C[C@@]2(C)C1CC[C@]2(O)C(=O)NCCc1nc2ccccc2o1 (some centres unmarked) [Compound 12] |  |  | 0.06 to 20 | > 80 | 
14 | C[C@H](NC(=O)[C@@]1(O)CCC2C3CCC4=Cc5c(cnn5-c5ccc(F)cc5)C[C@]4(C)C3[C@@H](O)C[C@@]21C)c1ccccc1 (some centres unmarked) [Compound 13] |  |  | 0.06 to 20 | > 80 | 
15 | CC12Cc3cnn(-c4ccc(F)cc4)c3C=C1CCC1C2[C@@H](O)CC2(C)C1CC[C@]2(O)C(=O)NCc1cn(Cc2ccccc2)nn1 (some centres unmarked) [Compound 14] |  |  | 0.06 to 20 | > 80 | 
16 | Cn1c(SCC(=O)[C@@]2(O)CCC3C4CCC5=Cc6c(cnn6-c6ccccc6)CC5(C)C4[C@@H](O)CC32C)nc2ccccc21 (some centres unmarked) [Compound 14] | 0.06 to 20 | > 80 |  |  | 
17 | CC12Cc3cnn(-c4ccccc4)c3C=C1CCC1C2[C@@H](O)CC2(C)C1CC[C@]2(O)C(=O)CSc1ccc2ccccc2n1 (some centres unmarked) [Compound 15] | 0.06 to 20 | > 80 |  |  | 
18 | C[C@H](NC(=O)[C@@]1(OC(=O)c2ccco2)CCC2C3CCC4=Cc5c(cnn5-c5ccc(F)cc5)CC4(C)C3[C@@H](O)CC21C)c1cccc2ccccc12 (some centres unmarked) [Compound 15] |  |  | 0.06 to 20 | > 80 | 
19 | CC12Cc3cnn(-c4ccccc4)c3C=C1CCC1C2[C@@H](O)CC2(C)C1CC[C@]2(O)C(=O)CSc1ccccn1 (some centres unmarked) [Compound 16] | 0.06 to 20 | > 80 |  |  | 
20 | C[C@H](NC(=O)[C@@]1(OC(=O)c2ccco2)CCC2C3CCC4=Cc5c(cnn5-c5ccc(F)cc5)CC4(C)C3[C@@H](O)CC21C)c1ccccc1 (some centres unmarked) [Compound 16] |  |  | 0.06 to 20 | > 80 | 
21 | CC12Cc3cnn(-c4ccc(F)cc4)c3C=C1CCC1C2[C@@H](O)CC2(C)C1CC[C@]2(OC(=O)c1ccco1)C(=O)NCCc1cnccn1 (some centres unmarked) [Compound 17] |  |  | 0.06 to 20 | > 80 | 
22 | CC12Cc3cnn(-c4ccc(F)cc4)c3C=C1CCC1C2[C@@H](O)CC2(C)C1CC[C@]2(O)C(=O)Nc1nc2ccc(S(N)(=O)=O)cc2s1 (some centres unmarked) [Compound 18] |  |  | 0.06 to 20 | > 80 | 
23 | CC12Cc3cnn(-c4ccc(F)cc4)c3C=C1CCC1C2[C@@H](O)CC2(C)C1CC[C@]2(O)C(=O)N[C@H](CO)CCc1ccccc1 (some centres unmarked) [Compound 19] |  |  | 0.06 to 20 | > 80 | 
24 | CC12Cc3cnn(-c4ccccc4)c3C=C1CCC1C2[C@@H](O)CC2(C)C1CC[C@]2(O)C(=O)CSc1nc2ccccc2o1 (some centres unmarked) [Compound 19] | 401 to 1000 | < 60 |  |  | 
25 | CC12Cc3cnn(-c4ccc(F)cc4)c3C=C1CCC1C2[C@@H](O)CC2(C)C1CC[C@]2(O)C(=O)NCc1nc2ccccc2o1 (some centres unmarked) [Compound 20] |  |  | 0.06 to 20 | > 80 | 

Row | SMILES | IC50 (Table 1) [nM] | Emax (Table 1) [%] | IC50 (Table 2) [nM] | Emax (Table 2) [%] | Emax (Table 3) [%]
26 | Cn1ncc2c1C=C1CCC3C([C@@H](O)CC4(C)C3CC[C@]4(O)C(=O)CSc3nc4ccccc4n3C)C1(C)C2 (some centres unmarked) [Compound 20] | 66 to 400 | 60 to 70 |  |  | 
27 | Cn1c(NC(=O)[C@@]2(O)CCC3C4CCC5=Cc6c(cnn6-c6ccc(F)cc6)CC5(C)C4[C@@H](O)CC32C)nc2ccccc21 (some centres unmarked) [Compound 21] |  |  | 0.06 to 20 | > 80 | 
28 | Cn1ncc2c1C=C1CCC3C([C@@H](O)CC4(C)C3CC[C@]4(O)C(=O)CSc3nc4ccccc4s3)C1(C)C2 (some centres unmarked) [Compound 21] |  | < 60 |  |  | 
29 | CC12Cc3cnn(-c4ccc(F)cc4)c3C=C1CCC1C2[C@@H](O)CC2(C)C1CC[C@]2(O)C(=O)N[C@@H](CO)Cc1ccc2ccccc2c1 (some centres unmarked) [Compound 22] |  |  | 0.06 to 20 | > 80 | 
30 | Cn1ncc2c1C=C1CCC3C([C@@H](O)CC4(C)C3CC[C@]4(O)C(=O)CSc3nc4ccccc4o3)C1(C)C2 (some centres unmarked) [Compound 22] | 66 to 400 | < 60 |  |  | 
31 | CC(NC(=O)[C@@]1(O)CCC2C3CCC4=Cc5c(cnn5-c5ccc(F)cc5)CC4(C)C3[C@@H](O)CC21C)c1nc2ccccc2s1 (some centres unmarked) [Compound 23] |  |  | 0.06 to 20 | > 80 | 
32 | Cn1ncc2c1C=C1CCC3C([C@@H](O)CC4(C)C3CC[C@]4(O)C(=O)CSc3ccc4ccccc4n3)C1(C)C2 (some centres unmarked) [Compound 23] | 66 to 400 | 60 to 70 |  |  | 
33 | CC12Cc3cnn(-c4ccc(F)cc4)c3C=C1CCC1C2[C@@H](O)CC2(C)C1CC[C@]2(O)C(=O)N[C@H](CO)Cc1ccccc1 (some centres unmarked) [Compound 24] |  |  | 0.06 to 20 | > 80 | 
34 | Cn1ncc2c1C=C1CCC3C([C@@H](O)CC4(C)C3CC[C@]4(O)C(=O)CSc3nc4ccccc4[nH]3)C1(C)C2 (some centres unmarked) [Compound 24] | 66 to 400 | 70 to 80 |  |  | 
35 | COc1ccc2sc(SCC(=O)[C@@]3(O)CCC4C5CCC6=Cc7c(cnn7C)CC6(C)C5[C@@H](O)CC43C)nc2c1 (some centres unmarked) [Compound 25] |  | < 60 |  |  | 
36 | Cn1ncc2c1C=C1CCC3C([C@@H](O)CC4(C)C3CC[C@]4(O)C(=O)CSc3ncccn3)C1(C)C2 (some centres unmarked) [Compound 26] |  | < 60 |  |  | 
37 | Cn1ncc2c1C=C1CCC3C([C@@H](O)CC4(C)C3CC[C@]4(O)C(=O)CSc3nc4cccnc4s3)C1(C)C2 (some centres unmarked) [Compound 28] |  | < 60 |  |  | 
38 | Cn1ncc2c1C=C1CCC3C([C@@H](O)CC4(C)C3CC[C@]4(O)C(=O)CSc3nc4ncccc4o3)C1(C)C2 (some centres unmarked) [Compound 29] | 401 to 1000 | < 60 |  |  | 
39 | Cn1ncc2c1C=C1CCC3C([C@@H](O)CC4(C)C3CC[C@]4(O)C(=O)CSc3cnc4ccccc4n3)C1(C)C2 (some centres unmarked) [Compound 30] | 66 to 400 | 60 to 70 |  |  | 
40 | Cc1ccnc(SCC(=O)[C@@]2(O)CCC3C4CCC5=Cc6c(cnn6C)CC5(C)C4[C@@H](O)CC32C)n1 (some centres unmarked) [Compound 31] |  | < 60 |  |  | 
41 | Cn1ncc2c1C=C1CCC3C([C@@H](O)CC4(C)C3CC[C@]4(O)C(=O)CSc3ccccn3)C1(C)C2 (some centres unmarked) [Compound 32] |  | < 60 |  |  | 
42 | Cc1cccc(SCC(=O)[C@@]2(O)CCC3C4CCC5=Cc6c(cnn6C)CC5(C)C4[C@@H](O)CC32C)n1 (some centres unmarked) [Compound 33] | 66 to 400 | < 60 |  |  | 
43 | Cn1c(SCC(=O)[C@@]2(O)CCC3C4CCC5=Cc6c(cnn6-c6ccccn6)CC5(C)C4[C@@H](O)CC32C)nc2ccccc21 (some centres unmarked) [Compound 34] | 66 to 400 | 60 to 70 |  |  | 
44 | CC12Cc3cnn(-c4ccccn4)c3C=C1CCC1C2[C@@H](O)CC2(C)C1CC[C@]2(O)C(=O)CSc1nc2ccccc2s1 (some centres unmarked) [Compound 35] | 66 to 400 | 60 to 70 |  |  | 
45 | CC12Cc3cnn(-c4ccccn4)c3C=C1CCC1C2[C@@H](O)CC2(C)C1CC[C@]2(O)C(=O)CSc1nc2ccccc2o1 (some centres unmarked) [Compound 36] | 0.06 to 20 | > 80 |  |  | 
46 | CC12Cc3cnn(-c4ccccn4)c3C=C1CCC1C2[C@@H](O)CC2(C)C1CC[C@]2(O)C(=O)CSc1ccc2ccccc2n1 (some centres unmarked) [Compound 37] |  | < 60 |  |  | 
47 | CC12Cc3cnn(-c4ccccn4)c3C=C1CCC1C2[C@@H](O)CC2(C)C1CC[C@]2(O)C(=O)CSc1nc2ccccc2[nH]1 (some centres unmarked) [Compound 38] | 401 to 1000 | 60 to 70 |  |  | 
48 | COc1ccc2sc(SCC(=O)[C@@]3(O)CCC4C5CCC6=Cc7c(cnn7-c7ccccn7)CC6(C)C5[C@@H](O)CC43C)nc2c1 (some centres unmarked) [Compound 39] |  | < 60 |  |  | 
49 | CC12Cc3cnn(-c4ccccn4)c3C=C1CCC1C2[C@@H](O)CC2(C)C1CC[C@]2(O)C(=O)CSc1ncccn1 (some centres unmarked) [Compound 40] | 66 to 400 | 60 to 70 |  |  | 
